Experimental findings from patent publication US20260176249A1, “PROTEIN KINASE INHIBITOR, PREPARATION METHOD THEREFOR, AND APPLICATION THEREOF” (SHANDONG LUYE PHARMACEUTICAL CO., LTD., priority 2021, published 2026) are described below.

Structures are written as SMILES. Read-outs that look alike come from different tables or passages of the source.

Series [1] deals with T1, PLK1 kinase (Homo sapiens, UniProt P53350).
T1 construct: purchased Carnabio (Carna Biosciences) 05-157
In words: Inhibitory activity on PLK1 kinase. The format is biochemical. The following applies: for Imax: maximum effect caused by the compound at the test concentration. The protocol:
Detection solution PerkinElmer #TRF0218-M
Detection instrument PerkinElemer EnVision
a. Using the Echo machine, the compounds to be tested were diluted by 1:3 on a 384-well plate, and the highest concentration was 1 μM, with a total of 10 concentration points, and each concentration was tested in duplicate wells.
b. 5 μL/well of PLK1 kinase and peptide substrate mixture were added to the assay plate (containing controls).
d. The reaction was initiated by adding 5 μL/well of ATP solution;
e. The assay plate was centrifuged at 1000 rpm for about 15 seconds, a film was used to seal the assay plate which was incubated at 23° C. for a period of time;
f. A detection solution was added to all wells of the assay plate;
g. The assay plate was centrifuged at 1000 rpm for approximately 15 seconds, a film was used to seal the assay plate which was incubated at 23° C. for 60 min.
h. The assay plate was read on EnVision. The test results were analyzed using XLFIT5 software.

The subject of series [2] is HCT116 cells. The series can be described thus: Inhibitory activity on HCT116 cell proliferation (ATPlite). The format is cell-based. The conditions noted are these: Homo sapiens. The protocol:
Cell culture medium: RPMI1640+10% FBS (GBICO)
Cell culture plate: 96-well plate (Shanghai Jingan Biotechnology Co., Ltd.)
Detection kit: ATPlite 1step Luminescence (PerkinElmer)
Detection instrument: BioTek multifunctional microplate reader
2. Test method: HCT116 cells in the logarithmic growth phase were seeded into a white-wall clear-bottom 96-well plate at a density of 720 cells per well, and cultured overnight in a 37° C., 5% CO2 incubator. […] After adding the drug, culturing was continued for 72 h in a 37° C., 5% CO2 incubator.
GraphPad Prism 7.0 was used to process the data, the cell inhibition rate curve was obtained and IC50 was calculated.

A short description of series [3]: Metabolic stability in mouse liver microsomes. The format is in vitro ADME. The following applies: for CLint scaled at 1 µM / half-life at 1 µM: pH 7.4; for microsomal CLint at 1 µM: pH 7.4, read-out: CLint(mic). The protocol:
(§1) a. Preparation of phosphate buffer: The phosphate buffer powder was dissolved in 100 mL of pure water to prepare a phosphate buffer solution with a pH of 7.4 and a concentration of 100 mM, which was stored in a 4° C. refrigerator for later use.
(§2) b. All samples as well as the reference testosterone were dissolved in DMSO to obtain a 10 mM stock solution. The 10 mM stock solution was diluted to 100 μM with acetonitrile to obtain a working solution for later use.
(§3) c. Preparation of liver microsome working solution: Each of the mouse, rat and human liver microsome stock solutions (at concentration of 20 mg/mL) was taken and diluted to 0.56 mg/mL with 100 mM phosphate buffer solution to obtain the liver microsome working solution.
(§4) d. Preparation of solution: An appropriate amount of MgCl2 was weighed and used to prepare a MgCl2 solution at a concentration of 60 mM using 100 mM phosphate buffer solution. An appropriate amount of NADPH was weighed and used to prepare a NADPH solution at a concentration of 20 mM using 100 mM phosphate buffer solution. An equal volume of 60 mM MgCl2 solution was added to prepare an NADPH working solution containing 10 mM NADPH and 30 mM MgCl2. An acetonitrile solution containing 20 ng/mL tolbutamide was prepared as the stop solution.
(§5) e. Liver microsome incubation: 2 μL of each compound and the positive drug testosterone working solution were added to 178 μL of liver microsome working solution (0.56 mg/mL), mixed gently, and pre-incubated in a vibrating constant temperature water bath pot at 37° C. for 10 min. After adding 20 μL of NADPH working solution, the mixture was placed in a vibrating constant temperature water bath pot at 37° C. and timed incubation was started for 5, 10, 20, 30 and 60 min.
(§6) f. Stopping reaction: After the corresponding time of incubation, 400 μL of stop solution was added to stop the reaction, and then the sample was immediately shaken for 1 min. The sample was centrifuged at 13500 rpm for 10 min at 10° C. After centrifugation, the supernatant was removed, diluted with water according to the needs of each compound, and analyzed by LC-MS. For the 0-minute sample, the stop solution was first added and mixed evenly with the liver microsomes, and then the NADPH working solution was added. For the negative control sample, 20 μL of 30 mM MgCl2 solution was added instead of the NADPH working solution.
(§7) T1/2 and CLint(mic) were calculated by the following formula.
(§8) [formula] [formula] • CLint(mic)=0.693/T1/2/liver microsomal protein concentration during incubation (mg/mL) • CLint(ver)=CLint(mic)*liver microsomal protein (mg)/liver weight (g)*liver weight to body weight ratio
(§9) Liver microsomal protein (mg)/liver weight (g): the value is 45 in both animal and human species.
(§10) Liver weight to body weight ratio: the parameters for mice, rats and humans are 88, 40 and 20 g/kg respectively.

A short description of series [4]: Metabolic stability in rat liver microsomes. The following applies: for CLint scaled at 1 µM / half-life at 1 µM: pH 7.4; for microsomal CLint at 1 µM: pH 7.4, read-out: CLint(mic). The format is in vitro ADME. The protocol:
as §1, §2, §3, §4, §5, §6, §7, §8, §9, §10
(Liver microsomes are vesicles of endoplasmic reticulum, rich in cytochrome P450 enzymes.)

Series [5] is described as follows: Metabolic stability in human liver microsomes. The format is in vitro ADME. The conditions noted are these: for CLint scaled at 1 µM / half-life at 1 µM: pH 7.4; for microsomal CLint at 1 µM: pH 7.4, read-out: CLint(mic). The protocol:
as §1, §2, §3, §4, §5, §6, §7, §8, §9, §10

Setting [6] is: PLK1 kinase, highest concentration 1 μM, 10 points, read-out: IC50.
[7] abbreviates: HCT-116, HCT116 cells, 72 h, read-out: IC50.

T1 sequence (P53350 whole entry): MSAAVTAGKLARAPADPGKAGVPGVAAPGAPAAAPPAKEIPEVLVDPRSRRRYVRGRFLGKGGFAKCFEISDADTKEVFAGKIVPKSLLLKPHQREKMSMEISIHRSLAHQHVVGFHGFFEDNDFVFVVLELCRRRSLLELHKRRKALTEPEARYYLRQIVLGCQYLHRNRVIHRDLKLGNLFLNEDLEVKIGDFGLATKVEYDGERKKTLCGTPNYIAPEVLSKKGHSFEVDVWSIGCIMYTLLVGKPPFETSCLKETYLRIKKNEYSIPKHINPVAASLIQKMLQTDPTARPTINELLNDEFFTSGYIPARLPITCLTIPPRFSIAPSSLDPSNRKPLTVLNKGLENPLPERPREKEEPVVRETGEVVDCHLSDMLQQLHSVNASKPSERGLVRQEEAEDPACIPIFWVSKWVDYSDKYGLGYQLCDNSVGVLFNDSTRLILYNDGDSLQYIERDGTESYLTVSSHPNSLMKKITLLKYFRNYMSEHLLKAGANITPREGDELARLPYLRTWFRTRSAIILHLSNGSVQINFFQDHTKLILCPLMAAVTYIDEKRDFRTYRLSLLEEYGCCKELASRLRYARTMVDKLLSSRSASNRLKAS

Turning to `CN1CCN(c2ccc(OC(F)(F)F)c(Nc3ncc4ccc5c(C(N)=O)nn(C6CC6)c5c4n3)c2)CC1` [Compound 27], in series [1], the IC50 came out at 0.459 nM and the Imax was 100.24%.

On to `CN1CCN(c2ccc(OC(F)(F)F)c(Nc3ncc4ccc5c(C(=O)NOCCO)nn(CCF)c5c4n3)c2)CC1` [Compound 30], for which, in series [1], inhibition was half-maximal at 0.776 nM (IC50) and the Imax was 99.97%.

Take `CN1CCN(c2ccc(OC(F)(F)F)c(Nc3ncc4ccc5c(C(N)=O)cn(C)c5c4n3)c2)CC1` [Compound 22]: the IC50 in series [1] (setting [6]) came out at 1.51 nM. The Imax in series [1] is 99.99%.

Consider `CN1CCN(c2ccc(OC(F)(F)F)c(Nc3ncc4ccc5c(C(=O)NOCCO)nn(CCO)c5c4n3)c2)CC1` [Compound 31], for which, in series [1], the midpoint of inhibition, the IC50, lay at 1.55 nM and the Imax is recorded as 99.54%.

As for `CN1CCN(c2ccc(OC(F)(F)F)c(Nc3ncc4ncc5c(C(N)=O)nn(CCO)c5c4n3)c2)CC1` [Compound 6], in series [2] (setting [7]), the half-maximal inhibitory concentration (IC50) was found to be 2720 nM.

`CCn1nc(C(N)=O)c2ccc3cnc(Nc4cc(N5CCN(C)CC5)ccc4OC(F)(F)F)nc3c21` [Compound 29] gave an IC50 in series [2] (HCT-116, 72 h) of 77 nM.

`C[C@@H](Oc1cc(-n2cnc3ccc(CN4CCN(C)CC4)cc32)sc1C(N)=O)c1ccccc1C(F)(F)F` [GSK461364, reference compound] yielded an Imax in series [1] of 101.08%.

Consider `CN1CCN(c2ccc(OC(F)(F)F)c(Nc3ncc4ccc5c(C(=O)NO)nn(CCO)c5c4n3)c2)CC1` [Compound 19], for which, in series [1], the concentration for half-maximal inhibition (IC50) was 1.06 nM and the Imax is 99.97%. The compound further yielded a concentration for half-maximal inhibition (IC50) in series [2] (HCT-116, 72 h) of 96 nM. Further, in series [3], the “60 min remaining amount” value came to 22.0%, the Clearance rate entry is on record as “Medium”, the CLint scaled at 1 µM was determined as 192 mL/min/kg and the half-life at 1 µM is 28.5 min. In addition, the microsomal CLint at 1 µM in series [3] was determined as 48.6 µL/min/mg. For the same compound, in series [4], the “60 min remaining amount” value was 11.9%, the Clearance rate entry was “Medium”, the CLint scaled at 1 µM is 127 mL/min/kg and the half-life at 1 µM came out at 19.6 min. In series [4], the microsomal CLint at 1 µM was 70.8 µL/min/mg. For the same compound, in series [5], the “60 min remaining amount” value was 51.9%, the Clearance rate entry is given as “Medium”, the intrinsic metabolic clearance (CLint scaled) at 1 µM came out at 19.6 mL/min/kg and the half-life at 1 µM came out at 63.6 min. For the same compound, the microsomal CLint at 1 µM in series [5] was found to be 21.8 µL/min/mg.

Regarding `CN1CCN(c2ccc(OC(F)(F)F)c(Nc3ncc4ccc5c(C(=O)NO)nn(CCF)c5c4n3)c2)CC1` [Compound 25], in series [1], the IC50 amounted to 1.12 nM and the Imax was found to be 100.23%.

For `CN1CCN(c2ccc(OC(F)(F)F)c(Nc3ncc4c(n3)-c3c(c(C(=O)NO)nn3CCF)CC4)c2)CC1` [Compound 17], the IC50 in series [1] (setting [6]) is 0.814 nM. This compound registered an Imax in series [1] of 99.97%. Besides, the results for the “60 min remaining amount” value in series [3], in series [4] and in series [5] were 2.46%, 1.93% and 26.0%, respectively. Besides, the results for the Clearance rate entry in series [3], in series [4] and in series [5] were “High”, “High” and “Medium”, respectively. The CLint scaled at 1 µM came out at 470 mL/min/kg in series [3] (mouse), 410 mL/min/kg in series [4] (rat) and 41.8 mL/min/kg in series [5] (human). Moreover, the figures for the half-life at 1 µM in series [3] (mouse), in series [4] (rat) and in series [5] (human) were 11.7 min, 6.08 min and 29.9 min, respectively. The microsomal CLint at 1 µM in series [3] (mouse) was determined as 119 µL/min/mg; in series [4] (rat) it was 228 µL/min/mg; in series [5] (human), 46.4 µL/min/mg.

In the case of `CN1CCN(c2ccc(OC(F)(F)F)c(Nc3ncc4c(n3)-c3c(c(C(N)=O)nn3CCO)N(C)C4)c2)CC1` [Compound 5], the values for the concentration for half-maximal inhibition (IC50) in series [1] (setting [6]) and in series [2] (setting [7]) were 73.3 nM and 924 nM, respectively. The same compound came in with an Imax in series [1] of 76.81%.

In series [1], `CN1CCN(c2ccc(OC(F)(F)F)c(Nc3ncc4ccc5c(C(N)=O)cn(CCO)c5c4n3)c2)CC1` [Compound 21] returned an IC50 of 0.756 nM and an Imax of 99.15%.

In series [1], `CN1CCN(c2ccc(OC(F)(F)F)c(Nc3ncc4ccc5c(C(N)=O)nn(CC(F)(F)F)c5c4n3)c2)CC1` [Compound 28] displayed a 50% inhibitory concentration (IC50) of 0.67 nM and an Imax of 100.08%.

Consider `CN1CCN(c2ccc(OC(F)(F)F)c(Nc3ncc4ccc5c(C(=O)NO)nn(CC(F)(F)F)c5c4n3)c2)CC1` [Compound 32], for which, in series [1], the half-inhibitory concentration (IC50) was found to be 0.463 nM and the Imax is given as 99.87%.

The term IC50 denotes the point on the concentration scale where inhibition reaches its midpoint. As a reminder, the CLint scaled is the rate of metabolic loss divided by the concentration. Read a high CLint scaled as rapid turnover. As a reminder, the half-life is the time needed for the level to fall by half in the phase considered. A high value points to slow loss.
